In ChEMBL document CHEMBL1201862, “PubChem BioAssay data set” (2004):
Calls of active or inactive are those of the source.

Columns and labels:
HEK293 [1] = assay: cells; settings: Homo sapiens
[2] = Luminescence Cell-Based Dose Retest to Confirm Inhibitors of Cancer Stem Cells. [Related pubchem assays (depositor defined):AID2717, AID2721]; format: functional; settings: Homo sapiens
[3] = target: T1, Histone-lysine N-methyltransferase NSD2 (Homo sapiens, UniProt O96028); format: biochemical
T1 sequence (O96028 whole entry): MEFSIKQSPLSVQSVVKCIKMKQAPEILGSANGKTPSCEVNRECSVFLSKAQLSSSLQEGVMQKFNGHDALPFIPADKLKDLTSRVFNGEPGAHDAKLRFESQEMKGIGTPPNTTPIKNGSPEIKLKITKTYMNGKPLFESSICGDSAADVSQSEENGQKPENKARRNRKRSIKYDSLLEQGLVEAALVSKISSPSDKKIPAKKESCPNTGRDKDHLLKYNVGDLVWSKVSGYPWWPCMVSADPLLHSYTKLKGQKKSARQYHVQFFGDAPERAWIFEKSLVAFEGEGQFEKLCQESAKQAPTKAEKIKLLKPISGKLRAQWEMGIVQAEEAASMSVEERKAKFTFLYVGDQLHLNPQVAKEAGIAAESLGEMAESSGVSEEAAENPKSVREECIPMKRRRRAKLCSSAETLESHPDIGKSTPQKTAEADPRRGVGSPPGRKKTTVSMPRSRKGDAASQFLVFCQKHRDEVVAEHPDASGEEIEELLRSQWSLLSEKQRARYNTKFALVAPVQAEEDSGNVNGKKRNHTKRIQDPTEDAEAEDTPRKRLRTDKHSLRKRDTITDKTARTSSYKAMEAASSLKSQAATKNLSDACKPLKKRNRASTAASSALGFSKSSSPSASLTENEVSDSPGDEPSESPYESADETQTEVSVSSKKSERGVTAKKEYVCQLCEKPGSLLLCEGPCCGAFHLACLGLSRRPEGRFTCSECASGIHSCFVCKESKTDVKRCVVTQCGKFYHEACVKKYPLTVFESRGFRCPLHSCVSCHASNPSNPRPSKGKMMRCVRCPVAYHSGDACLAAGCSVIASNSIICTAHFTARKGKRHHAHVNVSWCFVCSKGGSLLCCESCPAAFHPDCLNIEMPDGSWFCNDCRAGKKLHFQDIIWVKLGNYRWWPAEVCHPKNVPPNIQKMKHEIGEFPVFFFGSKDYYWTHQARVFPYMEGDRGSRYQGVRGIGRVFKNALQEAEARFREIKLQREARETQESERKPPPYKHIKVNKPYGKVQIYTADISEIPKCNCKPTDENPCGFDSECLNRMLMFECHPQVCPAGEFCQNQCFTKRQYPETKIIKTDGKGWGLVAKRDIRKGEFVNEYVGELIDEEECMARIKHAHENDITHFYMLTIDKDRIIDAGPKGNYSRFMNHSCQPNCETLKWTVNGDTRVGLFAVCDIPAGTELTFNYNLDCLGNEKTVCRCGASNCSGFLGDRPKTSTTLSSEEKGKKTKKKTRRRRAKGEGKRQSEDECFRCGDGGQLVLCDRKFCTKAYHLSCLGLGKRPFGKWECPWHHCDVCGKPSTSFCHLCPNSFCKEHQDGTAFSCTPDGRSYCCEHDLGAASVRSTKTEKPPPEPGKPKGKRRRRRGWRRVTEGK

HEK293 [4] = assay: cells; settings: Homo sapiens; remark: listed apart in the source
[5] = target: Dual specificity tyrosine-phosphorylation-regulated kinase 1A (Rattus norvegicus, UniProt Q63470); format: biochemical, Homo sapiens
[6] = target: T2, Sentrin-specific protease 8 (Homo sapiens, UniProt Q96LD8); format: functional
T2 sequence (Q96LD8 whole entry): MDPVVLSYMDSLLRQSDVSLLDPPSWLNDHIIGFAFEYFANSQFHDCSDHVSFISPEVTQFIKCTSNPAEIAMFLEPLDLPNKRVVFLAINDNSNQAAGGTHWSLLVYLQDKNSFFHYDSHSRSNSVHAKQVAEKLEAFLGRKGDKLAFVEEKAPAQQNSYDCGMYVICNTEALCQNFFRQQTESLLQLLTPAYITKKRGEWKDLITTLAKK

[7] = target: T2, Sentrin-specific protease 8; format: functional; remark: listed apart in the source
[8] = viability loss in HeLa cells – cytotoxicity control for MgcRacGAP inhibitor project, dose response (AID 624300); format: functional
[9] = Fluorescence-based cell-based high throughput dose response assay for inhibitors of the interaction of nucleotide-binding oligomerization domain containing 2 (NOD2) and the receptor-interacting serine-threonine kinase 2 (RIPK2).; format: functional; settings: Homo sapiens
Vero [10] = assay: cells; format: functional; settings: Chlorocebus sabaeus
Vero [11] = assay: cells; format: functional, cell-based; settings: Chlorocebus sabaeus
[12] = target: T3, High affinity choline transporter 1 (Homo sapiens, UniProt Q9GZV3); assay: human choline transporter blockers, potency – cell-based, 5-point CRC, membrane potential dye, dose response (AID 504840); format: functional
T3 sequence (Q9GZV3 whole entry): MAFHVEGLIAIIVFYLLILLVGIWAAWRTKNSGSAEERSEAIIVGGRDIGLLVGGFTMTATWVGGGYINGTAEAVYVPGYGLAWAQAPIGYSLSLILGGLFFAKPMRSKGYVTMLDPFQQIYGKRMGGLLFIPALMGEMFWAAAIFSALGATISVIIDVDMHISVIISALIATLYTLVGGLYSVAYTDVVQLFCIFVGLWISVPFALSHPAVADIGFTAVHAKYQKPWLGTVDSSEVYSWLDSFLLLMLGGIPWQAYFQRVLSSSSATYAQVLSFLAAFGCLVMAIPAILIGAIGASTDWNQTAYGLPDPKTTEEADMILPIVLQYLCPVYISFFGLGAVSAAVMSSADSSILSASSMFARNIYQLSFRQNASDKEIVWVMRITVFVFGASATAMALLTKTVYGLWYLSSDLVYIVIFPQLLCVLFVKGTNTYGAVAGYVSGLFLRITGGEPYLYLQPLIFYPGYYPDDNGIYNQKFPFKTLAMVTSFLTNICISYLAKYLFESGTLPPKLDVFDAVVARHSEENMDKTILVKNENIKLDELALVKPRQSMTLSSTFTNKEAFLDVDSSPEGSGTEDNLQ

[13] = viability of uninfected HEp-2 cells – cell-based, HTS, cytotoxicity control for RSV inhibitor project, dose response (AID 2410); format: functional; settings: human respiratory syncytial virus
[14] = microbe, parasite or virus in culture; format: functional; settings: Mycobacterium tuberculosis
Melanocortin receptor 4 = Melanocortin receptor 4 (Homo sapiens, UniProt P32245); format: functional, cell-based;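 also: Cell-based assay with luminescence read-out, confirmatory dose-response testing for agonist activity of biased ligands at MC4R; human U2OS cells with tagged receptor and beta-arrestin; potency of agonists that increase receptor coupling to beta-arrestin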
Sequence of Melanocortin receptor 4 (P32245 whole entry): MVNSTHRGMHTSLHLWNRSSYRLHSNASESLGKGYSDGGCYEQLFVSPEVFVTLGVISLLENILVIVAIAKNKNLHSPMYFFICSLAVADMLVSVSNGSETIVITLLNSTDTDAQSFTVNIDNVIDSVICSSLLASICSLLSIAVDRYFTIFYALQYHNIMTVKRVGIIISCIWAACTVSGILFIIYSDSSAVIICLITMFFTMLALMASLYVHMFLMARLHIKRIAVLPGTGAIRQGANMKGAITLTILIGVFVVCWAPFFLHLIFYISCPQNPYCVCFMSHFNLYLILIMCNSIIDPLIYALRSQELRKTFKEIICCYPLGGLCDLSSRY

[15] = target: T4, Low molecular weight phosphotyrosine protein phosphatase (Homo sapiens, UniProt P24666); format: functional; settings: read-out: IC50_Mean
T4 sequence (P24666 whole entry): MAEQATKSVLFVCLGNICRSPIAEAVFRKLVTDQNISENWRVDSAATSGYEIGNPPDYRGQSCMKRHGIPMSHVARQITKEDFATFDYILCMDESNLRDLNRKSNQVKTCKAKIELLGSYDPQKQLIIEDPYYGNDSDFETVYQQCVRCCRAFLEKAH

[16] = target: T4, Low molecular weight phosphotyrosine protein phosphatase; format: functional; settings: read-out: IC50_Mean; remark: listed apart in the source
[17] = NIH3T3 cell viability loss – ATP luminescence, mouse fibroblasts, counter-screen, dose response (AID 2010); format: functional, cell-based;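 also: cells exposed to compound for about 90 hours before reading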
[18] = Trypanosoma cruzi growth suppression in host cells – NIH3T3 host cells, beta-gal luminescence, confirmation (AID 2044); format: functional, cell-based;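 also: intracellular parasites grown in NIH/3T3 mouse fibroblasts as host cells; luminescent beta-galactosidase reporter signal from transgenic T. cruzi replicating inside host cells; inhibitors lower the luminescence signal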
cells [19] = assay: cells
[20] = target: FAD-linked sulfhydryl oxidase ALR (Homo sapiens, UniProt P55789); assay: ALR-catalysed DTT oxidation blockers – biochemical, H2O2 detection, luminescence, cherry-pick, dose response (AID 493248)
Sequence of FAD-linked sulfhydryl oxidase ALR (P55789 whole entry): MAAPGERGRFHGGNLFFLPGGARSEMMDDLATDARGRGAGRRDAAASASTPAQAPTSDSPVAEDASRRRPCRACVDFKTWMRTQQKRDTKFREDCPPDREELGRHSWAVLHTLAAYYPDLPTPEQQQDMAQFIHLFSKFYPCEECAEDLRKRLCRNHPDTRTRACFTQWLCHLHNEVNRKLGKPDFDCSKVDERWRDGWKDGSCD

[21] = target: T5, Polyadenylate-binding protein 1 (Homo sapiens, UniProt P11940); assay: MLLE binding blockers, Cy5 peptide tracer – biochemical, fluorescence polarization, Cy5-PAM2 peptide, secondary, miRNA deadenylation inhibitor project, dose response (AID 602260); format: functional; settings: read-out: IC50_Mean
T5 sequence (P11940 whole entry): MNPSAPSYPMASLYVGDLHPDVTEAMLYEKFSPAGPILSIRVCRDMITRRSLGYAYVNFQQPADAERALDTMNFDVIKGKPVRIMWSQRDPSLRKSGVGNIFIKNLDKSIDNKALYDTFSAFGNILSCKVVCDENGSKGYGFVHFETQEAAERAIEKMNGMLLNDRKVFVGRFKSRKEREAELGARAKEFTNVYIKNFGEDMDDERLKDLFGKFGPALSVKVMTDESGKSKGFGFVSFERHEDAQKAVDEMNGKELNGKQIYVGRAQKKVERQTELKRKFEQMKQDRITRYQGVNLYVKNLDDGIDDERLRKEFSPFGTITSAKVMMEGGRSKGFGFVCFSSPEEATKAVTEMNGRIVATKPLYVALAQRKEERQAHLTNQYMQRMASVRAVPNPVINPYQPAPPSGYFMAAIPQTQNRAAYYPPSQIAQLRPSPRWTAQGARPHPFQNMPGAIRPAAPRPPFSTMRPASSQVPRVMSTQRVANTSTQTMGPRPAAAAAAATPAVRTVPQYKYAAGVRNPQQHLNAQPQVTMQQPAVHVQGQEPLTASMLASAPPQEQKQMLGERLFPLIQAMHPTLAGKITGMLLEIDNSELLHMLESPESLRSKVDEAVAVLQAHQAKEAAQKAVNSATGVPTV

H4 = assay: Luminescence Cell-Based Dose Response HTS to Identify Activators of 5'UTR Stem-Loop Driven Prion Protein mRNA Translation in H4 Neuroglioblastoma Cells. [Related pubchem assays: 1829 (Project Summary), 1814 (Primary HTS)]; format: functional; settings: Homo sapiens
[22] = THP-1 cell cytotoxicity, dose response, cytotoxicity control for non-replicating M. tuberculosis project (AID 489025); format: functional
[23] = Luminescence Cell-Based Dose Confirmation HTS to Identify Activators of 5'UTR Stem-Loop Driven Alpha-Synuclein mRNA Translation in H4 Neuroglioblastoma Cells. [Related pubchem assays: 1829 (Project Summary), 1814 (Primary HTS)]; format: functional
[24] = Luminescence Cell-Based Dose Response HTS to Identify Activators of Luciferase Translation or Activity in H4 […] Cells. [Related pubchem assays: 1829 (Project Summary), 1814 (Primary HTS)]; format: functional
[25] = Vero E6 cell cytotoxicity, dose response, cytotoxicity control for non-replicating M. tuberculosis project, secondary assay (AID 492998); format: functional, VeroE6; settings: Vero C1008
[26] = HEK-293T cell viability reduction – luminescence, B-cell screen hits, cytotoxicity control for BCR NF-kB inhibitor project, dose response (AID 489021); format: functional, cell-based;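 also: HEK-293T cells carrying an NF-kB luciferase reporter; cells exposed to compound for about 14 hours before viability readout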
[27] = target: T5, Polyadenylate-binding protein 1; assay: MLLE domain peptide-binding blockers, IC50 – biochemical, fluorescence polarization, FITC-PAM2 peptide, dose response (AID 602259); format: functional; settings: read-out: IC50_Mean
cells [28] = format: functional
[29] = target: T6, Mannose-6-phosphate isomerase (Homo sapiens, UniProt P34949); assay: MPI inhibition at elevated mannose 6-phosphate – biochemical, fluorescence intensity, high mannose 6-phosphate, primary screen (AID 1220)
T6 sequence (P34949 whole entry): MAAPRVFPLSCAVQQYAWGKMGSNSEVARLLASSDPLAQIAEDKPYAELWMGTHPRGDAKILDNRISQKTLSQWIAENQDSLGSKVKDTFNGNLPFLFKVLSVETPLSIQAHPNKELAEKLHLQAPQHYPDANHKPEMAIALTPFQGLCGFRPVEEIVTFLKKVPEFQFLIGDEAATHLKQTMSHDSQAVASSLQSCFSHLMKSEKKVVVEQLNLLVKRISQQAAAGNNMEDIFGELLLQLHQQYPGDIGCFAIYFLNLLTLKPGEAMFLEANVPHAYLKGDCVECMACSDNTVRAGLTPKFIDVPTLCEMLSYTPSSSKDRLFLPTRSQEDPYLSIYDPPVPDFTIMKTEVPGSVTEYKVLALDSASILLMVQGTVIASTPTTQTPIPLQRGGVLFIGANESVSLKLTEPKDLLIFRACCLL

Cc1ccc(N2C(=O)NC(=O)/C(=C\C=C\c3ccco3)C2=O)cc1
EC50 (HEK293 [1]): > 59.6 µM (inactive) | AC50 [2]: 2.98 µM (active) | AC50 [3]: > 20 µM (inactive) | EC50 (HEK293 [4]): > 59.6 µM (inactive)

O=C1NC(=O)/C(=C\c2ccc(Oc3cnccn3)cc2)S1
AC50 [5]: 4.71 µM (active)

Cc1ccc(-c2nn[nH]n2)cc1Cl
AC50 [5]: 9.99 µM (active)

O=C(O)c1cccc(N2C(=O)c3ccc4c5c(ccc(c35)C2=O)C(=O)N(c2cccc(C(=O)O)c2)C4=O)c1
IC50 [6]: 16.5 µM (active) | IC50 [7]: 13.7 µM (active)

CCOC(=O)/C(C#N)=C\c1c(OCC)n(CC)c2ccccc12
CC50 [8]: 100 µM (active)

CC(NC(=O)CN(c1cccc(C(F)(F)F)c1)S(=O)(=O)c1ccc(Cl)c([N+](=O)[O-])c1)c1ccccc1 (configuration not stated)
IC50 [9]: 15.6 µM (inactive)

Cc1ccc(N(C(=O)Cc2cccs2)C(C(=O)NC2CCCCC2)c2ccccn2)cc1C (configuration not stated)
EC50 (HEK293 [1]): > 59.6 µM (inactive) | EC50 (HEK293 [4]): > 0.245 µM (active)

Cc1ccc(Oc2ccc(NC(=O)Cn3ccsc3=N)cc2)cc1
CC50 (Vero [10]): 19.1 µM (active) | IC50 (Vero [11]): > 25 µM (active) | IC50 [12]: 13.2 µM (active) | CC50 [13]: 15.7 µM (active)

Cc1ccc(CN2CCC(c3cc(-c4ccc(Cl)cc4)[nH]n3)CC2)cc1
CC50 [14]: > 40 µM (active) | EC50 (Melanocortin receptor 4): > 89.2 µM (inactive)

Fc1ccccc1-c1nc(NCCCN2CCOCC2)c2ccccc2n1
IC50 [15]: 13 µM (active) | IC50 [16]: 33 µM (inactive)

O=c1c2ccccc2[nH]c(=S)n1CCCN1CCN(c2ccccc2)CC1
EC50 [17]: > 60 µM (not active) | IC50 (Vero [11]): > 25 µM (active) | EC50 [18]: < 0.1 µM (active) | CC50 [13]: > 12.5 µM (active) | EC50 (cells [19]): 0.169 µM (active)

Cn1cnc([N+](=O)[O-])c1Sc1ccc([N+](=O)[O-])cc1
AC50 [20]: 8.39 µM (active) | IC50 [21]: > 66 µM (inactive) | EC50 (H4): > 120 µM (not active) | CC50 [22]: > 40 µM (active) | EC50 [23]: > 120 µM (not active) | EC50 [24]: > 120 µM (not active) | CC50 [25]: > 20 µM (active) | IC50 [26]: > 80 µM (inactive) | IC50 [27]: > 66 µM (inactive) | IC50 (cells [28]): 10.8 µM (active)

Cc1ccc(C)c(-c2csc(NC(=O)c3cnccn3)n2)c1
EC50 [17]: 10.4 µM (active) | EC50 [18]: 2.04 µM (active) | CC50 [25]: 17.6 µM (active) | IC50 (cells [28]): 3.99 µM (active)

O=c1c2ccccc2[nH]c(=S)n1CCCN1CCN(c2ccccc2F)CC1
IC50 (Vero [11]): > 25 µM (active)

N#CC1=C(SCc2ccc(C#N)cc2)N=C(N)C(c2nc(-c3ccccc3)cs2)C12CCCCC2 (configuration not stated)
EC50 (HEK293 [1]): > 59.6 µM (inactive) | EC50 (HEK293 [4]): > 59.6 µM (inactive)

CN(C)C=O.Cc1cc(-c2ccco2)c(C#N)c2nc3ccccc3n12
IC50 [29]: > 50 µM (not active) | IC50 [15]: 37.5 µM (inactive) | IC50 [16]: > 80 µM (inactive)

Cc1cc(C(=O)N/N=C/c2ccc(Cl)c([N+](=O)[O-])c2)c(C)n1-c1ccc(F)cc1
EC50 (HEK293 [1]): > 59.7 µM (inactive) | EC50 (HEK293 [4]): > 59.7 µM (inactive)
